Molecules are shown by their SMILES.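 Cells were grown in 96-well plates and exposed to each compound for 48 hours at five concentrations; endpoints were interpolated linearly between bracketing concentrations, or set to the highest concentration if not reached. GI50: concentration for 50% inhibition of growth.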 Activity calls are given as the source filed them. No stated cut-off is given here; in the data, active = GI50 up to about 1.1 µM and inactive = higher. Bounds are passed on as bounds.

Some test systems named below: NCI-H226; SW-620; CCRF-CEM; ACHN; NCI/ADR-RES; SK-OV-3; SR; RPMI-8226; CAKI-1; KM12; RXF 393; UO-31; EKVX; SK-MEL-28; OVCAR-5; HOP-62; OVCAR-4; SNB-75; U-251.
Common to all, as to assay: growth of human tumour cells (NCI), 48 h

Turning to `COc1cc(C(=O)N(Cc2cccnc2)C(=S)N(Cc2cccnc2)C(=O)c2cc(OC)c(OC)c(OC)c2)cc(OC)c1OC`, the GI50 is > 100 µM (inactive) in the experiment with NCI-H226; 32.9 µM (inactive) with SW-620; 30.3 µM (inactive) in the experiment with CCRF-CEM; > 100 µM (inactive) in the experiment with ACHN; > 100 µM (inactive) with NCI/ADR-RES; > 100 µM (inactive) in the experiment with SK-OV-3. Besides, the GI50 was 48.3 µM (inactive) in the experiment on SR; 56.6 µM (inactive) with RPMI-8226; 30.4 µM (inactive) in the experiment with CAKI-1; 22.4 µM (inactive) in the experiment on KM12; 38.4 µM (inactive) in the experiment on RXF 393; 49.8 µM (inactive) in the experiment on UO-31. The GI50 with EKVX was > 100 µM (inactive); in the experiment with SK-MEL-28, > 100 µM (inactive); with OVCAR-5, > 100 µM (inactive); in the experiment on HOP-62, 37.5 µM (inactive); in the experiment with OVCAR-4 it was 17.8 µM (inactive); in the experiment on SNB-75 it was 21.4 µM (inactive).

For the molecule `C[N+](C)(CCCn1ccnc1[N+](=O)[O-])CCCn1ccnc1[N+](=O)[O-]`, the GI50 with NCI-H226, with SW-620, in the experiment with U-251, in the experiment with CCRF-CEM, in the experiment with ACHN and in the experiment on NCI/ADR-RES was > 100 µM (inactive) each time. For the same molecule, the GI50 in the experiment with SK-OV-3, with SR, in the experiment with RPMI-8226, in the experiment on CAKI-1, with KM12 and in the experiment on RXF 393 was > 100 µM (inactive) each time. Further, the GI50 with UO-31, in the experiment on EKVX, in the experiment with SK-MEL-28, in the experiment with OVCAR-5, in the experiment on HOP-62 and with OVCAR-4 was > 100 µM (inactive) in each case. Further, in the experiment with SNB-75, the GI50 is > 100 µM (inactive).

As for `O=c1[nH]cnc2c1ncn2[C@@H]1C[C@@H]1CO`, the GI50 in the experiment on NCI-H226, with SW-620, in the experiment on U-251, with CCRF-CEM, in the experiment with ACHN and in the experiment on NCI/ADR-RES was > 100 µM (inactive) throughout. The GI50 was > 100 µM (inactive) in the experiment on SR; > 10 µM (inactive) in the experiment on RPMI-8226; > 100 µM (inactive) with CAKI-1; > 100 µM (inactive) with KM12; > 100 µM (inactive) in the experiment on RXF 393; > 100 µM (inactive) in the experiment on UO-31. Further, the GI50 with EKVX, with SK-MEL-28, with OVCAR-5, in the experiment with HOP-62, with OVCAR-4 and in the experiment on SNB-75 was > 100 µM (inactive) each time.

For `O=C1O/C(=C\c2ccc(O)cc2)C(c2ccc(O)c(Cl)c2)=C1Cl`, the GI50 is 58.1 µM (inactive) with NCI-H226; 41.7 µM (inactive) in the experiment with SW-620; 60.5 µM (inactive) in the experiment with U-251; 35.7 µM (inactive) in the experiment with CCRF-CEM; 57.7 µM (inactive) in the experiment with ACHN; 36.2 µM (inactive) in the experiment on NCI/ADR-RES. Further, the GI50 was > 100 µM (inactive) in the experiment with SK-OV-3; 27.7 µM (inactive) in the experiment with SR; > 100 µM (inactive) in the experiment on RPMI-8226; 37.2 µM (inactive) in the experiment with CAKI-1; 34 µM (inactive) with KM12; 30.9 µM (inactive) in the experiment on RXF 393. Further, the GI50 in the experiment on UO-31 is 35.2 µM (inactive); in the experiment with EKVX, 88.5 µM (inactive); with SK-MEL-28 it was > 100 µM (inactive); in the experiment with OVCAR-5, > 100 µM (inactive); with HOP-62, 35.4 µM (inactive); in the experiment on OVCAR-4, 69 µM (inactive). Besides, the GI50 in the experiment with SNB-75 was 70 µM (inactive).

In the case of `Cc1cc2c(c(C(=O)NCCC(=O)N[C@@H](C)C(=O)OCc3ccccc3)c1)Oc1c(cc(C)cc1C(=O)NCCC(=O)N[C@@H](C)C(=O)OCc1ccccc1)S2`, the GI50 with NCI-H226, in the experiment with SW-620, with U-251, in the experiment on CCRF-CEM, in the experiment on ACHN and with NCI/ADR-RES was > 100 µM (inactive) throughout. The GI50 in the experiment on SK-OV-3 is 80 µM (inactive); with SR, 43.3 µM (inactive); with RPMI-8226 it was > 100 µM (inactive); in the experiment on CAKI-1, > 100 µM (inactive); with KM12, > 100 µM (inactive); in the experiment with RXF 393 it was 38.5 µM (inactive). For the same molecule, the GI50 in the experiment on UO-31, with EKVX, in the experiment with OVCAR-5, in the experiment with HOP-62, in the experiment on OVCAR-4 and in the experiment with SNB-75 was > 100 µM (inactive) in each case.

As to `CCC(C)N1CN(c2ccccc2)C2(CCN(CC3COc4ccccc4O3)CC2)C1=O` (centres undefined), the GI50 in the experiment with NCI-H226 is 21 µM (inactive); with SW-620, 22.3 µM (inactive); in the experiment with U-251 it was 17.7 µM (inactive); in the experiment on CCRF-CEM, 19.9 µM (inactive); with ACHN, 33.5 µM (inactive); in the experiment on NCI/ADR-RES, 17.8 µM (inactive). Further, the GI50 is 33.6 µM (inactive) in the experiment with SK-OV-3; 17.9 µM (inactive) with SR; 13.3 µM (inactive) in the experiment on RPMI-8226; 16.9 µM (inactive) in the experiment with CAKI-1; 18.1 µM (inactive) with KM12; 20.9 µM (inactive) in the experiment with RXF 393. In addition, the GI50 with UO-31 is 10.8 µM (inactive); in the experiment with EKVX it was 14.9 µM (inactive); in the experiment on SK-MEL-28, 39.7 µM (inactive); in the experiment on OVCAR-5, > 10 µM (inactive); in the experiment on HOP-62 it was 19.4 µM (inactive); with SNB-75, 36.9 µM (inactive).

As for `O=C1OC(c2ccc(O)c(Cl)c2)(c2ccc(O)c(Cl)c2)c2ccc(Br)c3cccc1c23.O=C1OC(c2ccc(O)c(Cl)c2)(c2ccc(O)c(Cl)c2)c2cccc3c(Br)ccc1c23`, the GI50 with NCI-H226 is 17.7 µM (inactive); in the experiment on SW-620, 23.9 µM (inactive); in the experiment with U-251, 20.1 µM (inactive); in the experiment on CCRF-CEM it was 16.9 µM (inactive); with NCI/ADR-RES, 16.6 µM (inactive); with SK-OV-3 it was 17.2 µM (inactive). For the same molecule, the GI50 in the experiment with SR was 21.2 µM (inactive); in the experiment on RPMI-8226 it was 16.9 µM (inactive); with CAKI-1, 14.1 µM (inactive); in the experiment with KM12, 24.1 µM (inactive); in the experiment on RXF 393 it was 17.3 µM (inactive); in the experiment on UO-31, 19.4 µM (inactive). Moreover, the GI50 with EKVX is 14 µM (inactive); with SK-MEL-28, 20.9 µM (inactive); in the experiment on OVCAR-5 it was 20.7 µM (inactive); in the experiment with HOP-62 it was 21.5 µM (inactive); with OVCAR-4, 2.67 µM (inactive); with SNB-75 it was 22.5 µM (inactive).

As for `CC(=O)Nc1ccc2c(C)c3c(nc2n1)[nH]c1ccccc13`, the GI50 in the experiment on NCI-H226 is 23.4 µM (inactive); in the experiment on SW-620, 37.1 µM (inactive); with U-251, 32.4 µM (inactive); in the experiment with CCRF-CEM it was 30.6 µM (inactive); in the experiment with ACHN it was 17.8 µM (inactive); in the experiment with NCI/ADR-RES, 22.1 µM (inactive). In addition, the GI50 with SR is 17.6 µM (inactive); in the experiment on RPMI-8226 it was 27.2 µM (inactive); in the experiment on CAKI-1 it was 24 µM (inactive); with KM12, 21.9 µM (inactive); in the experiment with RXF 393, 33.6 µM (inactive); in the experiment with UO-31 it was 24.5 µM (inactive). The GI50 with EKVX is 23.1 µM (inactive); in the experiment with OVCAR-5, 51.4 µM (inactive); with HOP-62, 32.2 µM (inactive); in the experiment on OVCAR-4, 38.7 µM (inactive); in the experiment on SNB-75, 22.1 µM (inactive).

Consider `Cc1nc(C)c(N2CCN([N+](=O)[O-])CC2)c(O)n1`, for which the GI50 in the experiment on NCI-H226, in the experiment with SW-620, in the experiment with U-251, in the experiment with CCRF-CEM, in the experiment with ACHN and in the experiment on NCI/ADR-RES was > 100 µM (inactive) in each case. Also, the GI50 in the experiment with SK-OV-3, with SR, in the experiment with RPMI-8226, in the experiment on CAKI-1, with KM12 and in the experiment on RXF 393 was > 100 µM (inactive) in each case. Moreover, the GI50 in the experiment with UO-31 is > 100 µM (inactive); in the experiment with EKVX it was > 100 µM (inactive); in the experiment with SK-MEL-28 it was > 100 µM (inactive); with HOP-62, > 100 µM (inactive); in the experiment with OVCAR-4 it was > 100 µM (inactive); with SNB-75, < 0.01 µM (active).

In the case of `COc1ccc(C)cc1Nc1nnc(-c2ccccc2N)s1`, the GI50 is 43 µM (inactive) in the experiment with NCI-H226; 36.1 µM (inactive) with SW-620; 32.3 µM (inactive) in the experiment on CCRF-CEM; 51.8 µM (inactive) in the experiment on ACHN; 34.8 µM (inactive) in the experiment on NCI/ADR-RES; > 100 µM (inactive) with SK-OV-3. The GI50 in the experiment with SR was 13.4 µM (inactive); in the experiment with RPMI-8226, 18.1 µM (inactive); in the experiment on CAKI-1 it was 28.4 µM (inactive); with KM12, 28.4 µM (inactive); in the experiment on RXF 393, 55.1 µM (inactive); in the experiment on UO-31, 36.8 µM (inactive). The GI50 in the experiment with EKVX is 24.7 µM (inactive); with SK-MEL-28 it was 53.3 µM (inactive); in the experiment on OVCAR-5 it was 89.9 µM (inactive); in the experiment with HOP-62 it was 44.7 µM (inactive); in the experiment with OVCAR-4, 26.1 µM (inactive); in the experiment with SNB-75 it was 55 µM (inactive).

Consider `COc1cc2nn(-c3ccccc3)nc2c2nonc12`, for which the GI50 with NCI-H226, in the experiment with SW-620, in the experiment on CCRF-CEM, in the experiment with ACHN, with NCI/ADR-RES and in the experiment with SK-OV-3 was > 100 µM (inactive) throughout. Further, the GI50 in the experiment with SR, in the experiment with RPMI-8226, in the experiment with CAKI-1, in the experiment with KM12, with RXF 393 and in the experiment on UO-31 was > 100 µM (inactive) in each case. Besides, the GI50 is > 100 µM (inactive) in the experiment with EKVX; > 100 µM (inactive) in the experiment on SK-MEL-28; > 100 µM (inactive) in the experiment with OVCAR-5; > 100 µM (inactive) with HOP-62; 95.9 µM (inactive) with OVCAR-4; > 100 µM (inactive) with SNB-75.

The record behind these values is ChEMBL document CHEMBL1201862, “PubChem BioAssay data set” (2004).
